Data on five compounds can be found in ChEMBL document CHEMBL1681646 (Bioorg Med Chem Lett, 2011).

Bounds are passed on as bounds.

The target in the experiment is T1, Pancreatic triacylglycerol lipase (Sus scrofa, UniProt P00591).
T1 sequence (P00591 whole entry): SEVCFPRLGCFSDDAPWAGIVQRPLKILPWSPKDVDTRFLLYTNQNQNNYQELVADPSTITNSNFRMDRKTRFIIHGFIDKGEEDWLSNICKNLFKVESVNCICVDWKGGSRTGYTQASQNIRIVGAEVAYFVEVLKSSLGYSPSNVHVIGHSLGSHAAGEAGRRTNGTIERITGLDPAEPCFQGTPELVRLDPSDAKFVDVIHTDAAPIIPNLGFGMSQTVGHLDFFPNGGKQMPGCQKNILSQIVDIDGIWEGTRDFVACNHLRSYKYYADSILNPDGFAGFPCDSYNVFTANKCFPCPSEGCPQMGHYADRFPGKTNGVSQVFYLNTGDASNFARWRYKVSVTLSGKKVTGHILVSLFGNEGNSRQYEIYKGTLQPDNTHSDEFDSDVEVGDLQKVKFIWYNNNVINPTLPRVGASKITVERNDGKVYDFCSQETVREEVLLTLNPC
Put plainly: Inhibition of pig pancreatic lipase assessed as p-NPB hydrolysis […].
In the case of `COc1cc(C=O)ccc1O` [VANILLIN], the IC50 is 174 µM.
On to `COc1cc([C@@H](O)[C@H](C)O)ccc1O` (relative stereo), for which the concentration for half-maximal inhibition (IC50) turned out to be 12.1 µM.
To `COc1cc(C(=O)O)ccc1O` [VANILLIC ACID] belongs more than 250 µM; to `COc1cc([C@H]2CC(=O)O[C@H]2C)ccc1O` (relative stereo) [CURCULACTONE A], 232 µM.
To `COc1cc([C@H](O)[C@H](C)O)ccc1O` (relative stereo) belongs 9.1 µM.
